Experimental data: a melting point compilation (Tetko et al.; mined from patent text by program, amines drawn as free bases though some values may be those of a salt)

SMILES | melting point [°C]
CSC(C(=O)O)c1cc(=O)oc2cc(O)c(O)cc12 (stereo not drawn) | 254 to 256
COC(=O)Cc1c(C(=O)OC)ccn1CCOS(C)(=O)=O | 99 to 101
CCCCCC1CCc2c(c(F)c(F)c3oc(C4CCC(CCC)CC4)cc23)O1 (stereo not drawn) | 101
COC(=O)c1cc(Cl)cc(C=O)c1O | 132 to 134
O=S1(=O)CCC(c2ccc(N3CCN(CC(O)(Cn4cncn4)c4ccc(Cl)cc4Cl)CC3)cc2)CN1 (stereo not drawn) | 68 to 70
CCc1cc2c(o1)S(=O)(=O)NC2=O | 133
CC(=O)SCC(Cc1ccccc1)C(=O)NC1(C(=O)O)CC1 (stereo not drawn) | 169 to 171
COC(=O)c1cn(C(c2ccccc2)(c2ccccc2)c2ccccc2)nn1 | 189 to 190
O=C(Nc1ccc(Cl)c(C(F)(F)F)c1)c1ccccc1[N+](=O)[O-] | 165 to 169
CC(=O)N1CCC(C(=O)Nc2ccc(-n3nc(C(F)(F)F)cc3C(F)(F)F)cc2)CC1 | 94 to 95
CC1(C)CC(=C(c2ccc(O)cc2)c2ccc(-c3ccccc3C(=O)O)cc2)CC(C)(C)C1 | 230 to 231
COC(=O)C(C(C)C)N1CC(NC(=O)Cc2ccccc2)C1=O (stereo not drawn) | 105 to 107
COc1ccc(Nc2nc(Nc3cc4c(cc3OC)CCN(CC(=O)N(C)C)CC4)ncc2Cl)c(S(=O)(=O)C(C)C)c1 | 68 to 79
CCNC(=O)c1cc(N=C=S)ccc1[Si](C)(C)C | 106 to 108
CC1CCCCC1C(=O)Nc1ccc(-c2ncc(-c3ccc(NC(=O)c4cccnc4)cc3)[nH]2)cc1 (stereo not drawn) | 245 to 247
CCOC(=O)c1ccc(NCCCc2c(N(C(C)=O)C(C)=O)nc(NC(C)=O)[nH]c2=O)cc1 | 197 to 198
CCOC(C)C(=O)c1cc(C(C)(C)C)c(O)c(C(C)(C)C)c1 (stereo not drawn) | 64
O=c1oc2cc(O)ccc2c(O)c1C1=CCOc2oc3ccccc3c(=O)c21 | > 300
COc1ccc(-c2ccc(NN)nn2)cc1OC(C)C | 116
O=C(NCCc1ccccc1)c1ccc(OC(F)(F)F)cc1 | 143 to 144
BrC12CC3CC(CC(C3)C1=C1C3CC4CC(C3)CC1C4)C2 | 130 to 132
N#CC(C#N)=C1N(CCCN2CCc3ccccc3C2)CCN1CCN1CCCCC1 | 79 to 81
NS(=O)(=O)c1ccc(-n2nc(CCCNC(=O)Nc3ccc(Cl)cc3)cc2-c2ccccc2)cc1 | 103 to 110
COc1ccc(C2=C(c3ccc(O)cc3)CCCc3cc(O)ccc32)cc1 | 250 to 252
Cc1ccc(C(C)N(O)C(N)=O)cc1 (stereo not drawn) | 134 to 135

SMILES | melting point [°C]
CCOCCC(=O)OC1(C(=O)CO)CCC2C3CC(C)C4=CC(=O)C=CC4(C)C3C(O)CC21C (stereo not drawn) | 167
O=c1oc(-c2cccnc2)cc(O)c1SCc1ccccc1 | 183 to 184
NS(=O)(=O)c1ccc2c(c1)C(=NO)CCC2 | 162 to 164
CCOc1cc(Cc2ccccn2)ccc1CCCOc1c(CC(=O)O)cccc1OC | 97.5 to 98.5
Cc1cc(C)c(C(O)c2cccc(-n3ccnc3)c2)c(C)c1 (stereo not drawn) | 191 to 193
COC(=O)CCC(=O)c1ccc(CCCCNC(C)=O)cc1 | 94 to 95
O=C1c2ccccc2C(=O)N1CCc1ccc(C(F)(F)F)cc1 | 134 to 135
CC1(C)C=C(CC(=O)O)C(C)(C)CC1 | 50 to 54
Cn1c(C(F)(F)F)cc(=O)n(-c2cc(OCN3C(=O)CCC3=O)c(Cl)cc2F)c1=O | 212 to 214
O=C(CCCCc1ccccc1)Nc1ccc(C(=O)NO)cc1 | 189 to 191
CCOC1CC(O)C(=O)N1S(=O)(=O)c1ccccc1 (stereo not drawn) | 108 to 116
C=Cc1cnc(-c2ncccn2)nc1 | 150
CC(=O)N1CCN(c2ccc(Nc3nccc(-c4sc(-c5cccnc5)nc4C)n3)cc2)CC1 | 123 to 125
CN(Cc1ccc(NC(=O)C2=Cc3cc(-c4ccc(C#N)cc4)ccc3S(=O)(=O)CC2)cc1)C1CCOCC1 | 233 to 236
C=C1COc2c(F)c(F)cc3c(=O)c(C(=O)OCC)cn1c23 | 258 to 263
CP(=O)(O)CCC(=O)O | 95
Cc1cc(C)cc(COC2CCCCC2(N)c2ccccc2)c1 (stereo not drawn) | 75 to 78
CCn1c(C)c(C)cc(C(=O)O)c1=O | 164 to 165
N#CCCCN1C(=O)C(O)(c2cccc(Cl)c2)c2ccccc21 (stereo not drawn) | 124 to 126
O=C(NCCc1ccc(O)cc1)c1cccnc1 | 179 to 181
OC(c1ccccc1)c1nnnn1Cc1ccccc1 (stereo not drawn) | 81
O=S(=O)(c1ccc(Cl)cc1)N1CCC[C@@H](Nc2nccc(-c3c(-c4cccc(C=NO)c4)nc4sccn34)n2)C1 | 238 to 240
C[C@H](Oc1ccc(-c2cccc(OCC(N)=O)c2)cc1)[C@H](O)CCc1cccnc1 | 120 to 122
CCCCCCCCCCCCCCOCC(COCCCCCCCCCCCCCC)(CC(=O)O)CC(=O)O | 84 to 86
O=C1CC(c2cccc([N+](=O)[O-])c2)=Nc2ccc(C#Cc3ccccc3)cc2N1 | 228 to 229

SMILES | melting point [°C]
CC(CCCC(C)(C)OC1CCCCO1)C1CCC2C3CC=C4CC(O)CC(O)C4(C)C3CCC12C (stereo not drawn) | 130 to 132
CSC1=C(c2cc3ccccc3s2)N2CCN=C2S1 | 95 to 97
O=C1NC(=O)N(Cc2ccc(Cl)cc2)C1O (stereo not drawn) | 149 to 150
CC(C)c1ccc(C(=O)Cc2ccsc2)c(C(C)C)c1OS(N)(=O)=O | 136 to 138
CCNc1cn(-c2cncc(F)c2)nc1C | 85 to 86
COc1ccc(OCc2nc(-c3ccc(F)cc3)c(-c3ccc(S(C)(=O)=O)cc3)s2)cc1 | 160 to 164
COc1ccc2[nH]c(-c3n[nH]c4ccsc34)cc2n1 | 234 to 236
CCCc1nc2c(N)nc3cc(OCCN4CCCCC4)ccc3c2s1 | 141 to 143
CC12C=CC(O)CC1=CCC1C2CCC2(C)C(=O)CCC12 (stereo not drawn) | 138 to 140
CCC1(CC)C(=O)N(C(C)(C)C)CC(C)(C)N1C(C)c1ccc(OC(C)=O)cc1 (stereo not drawn) | 92 to 96
O=C(N[C@H]1CCCNC1=O)OCc1ccccc1 | 100 to 102
COc1ccc(C=CCN2CCc3nc(N)sc3CC2)cc1OC | 122 to 126
CCOC(=O)c1cc2c3ccccc3n(C)c2s1 | 99 to 100
CC(C)(C)C(=O)Nc1ccc(Br)cn1 | 57 to 59
CN(C)c1cccc2c(S(=O)(=O)Nc3ccc(Cl)nc3)cccc12 | 145 to 146
C[C@@H](Nc1ncnc2[nH]c(-c3ccc(CN(CCO)CCO)cc3)cc12)c1ccccc1 | 194 to 197
C=C(C#N)CN1CCC(C(N)=O)CC1 | 127 to 129
Cn1cnc2c(NC3CCCC3)ncnc21 | 108 to 109
O=c1c2c[nH]c3c(c-2nn1-c1ccc(Cl)cc1)CC(c1ccccc1)CC3 (stereo not drawn) | 333 to 335
Cc1cc(CO)cc(Oc2nc(Cl)nc(Cl)c2C(C)C)c1 | 140 to 141
C/C(=C\c1ccc(C(=O)O)cc1)c1ccc2c(c1)C(C)(C)C=CC2(C)C | 234 to 236
CCNc1nc2c(ccc3[nH]c4cnc(C(=O)OC(C)C)c(CC)c4c32)s1 | 275 to 276
CC(=O)c1ccc2c(c1)Cc1cccc(C(C)=O)c1-2 | 128 to 129
